Drawing on patent US7638515B2, “Tetrahydronaphthalene derivatives, process for their production and their use as anti-inflammatory agents” (Bayer Schering Pharma Aktiengesellschaft, priority 2003, dated 2009), this text covers melting point and IC50 for 12 molecules.

One may read the melting point as the temperature of the solid-liquid transition. A word on the IC50: it is the concentration that gives 50% inhibition.

The structures appear in SMILES notation.

In series [1] the test system is secretion of cytokine IL-8 in the human monocyte cell line THP-1. Description: Inhibition of LPS-triggered secretion of cytokine IL-8 in THP-1 cells (ELISA). In kind it is cell-based. The settings on record: THP-1, supernatant ELISA, read-out: IC50(IL8). The procedure: The concentration of the cytokines was determined in the supernatant by means of commercially available ELISA kits.
For orientation: In an ELISA, binding on a coated surface is turned into a signal by an enzyme label.

In series [2] the target is T1, progesterone receptor (PR) (Homo sapiens, UniProt P06401).
T1 construct: made in house
T1 sequence (P06401 1-933): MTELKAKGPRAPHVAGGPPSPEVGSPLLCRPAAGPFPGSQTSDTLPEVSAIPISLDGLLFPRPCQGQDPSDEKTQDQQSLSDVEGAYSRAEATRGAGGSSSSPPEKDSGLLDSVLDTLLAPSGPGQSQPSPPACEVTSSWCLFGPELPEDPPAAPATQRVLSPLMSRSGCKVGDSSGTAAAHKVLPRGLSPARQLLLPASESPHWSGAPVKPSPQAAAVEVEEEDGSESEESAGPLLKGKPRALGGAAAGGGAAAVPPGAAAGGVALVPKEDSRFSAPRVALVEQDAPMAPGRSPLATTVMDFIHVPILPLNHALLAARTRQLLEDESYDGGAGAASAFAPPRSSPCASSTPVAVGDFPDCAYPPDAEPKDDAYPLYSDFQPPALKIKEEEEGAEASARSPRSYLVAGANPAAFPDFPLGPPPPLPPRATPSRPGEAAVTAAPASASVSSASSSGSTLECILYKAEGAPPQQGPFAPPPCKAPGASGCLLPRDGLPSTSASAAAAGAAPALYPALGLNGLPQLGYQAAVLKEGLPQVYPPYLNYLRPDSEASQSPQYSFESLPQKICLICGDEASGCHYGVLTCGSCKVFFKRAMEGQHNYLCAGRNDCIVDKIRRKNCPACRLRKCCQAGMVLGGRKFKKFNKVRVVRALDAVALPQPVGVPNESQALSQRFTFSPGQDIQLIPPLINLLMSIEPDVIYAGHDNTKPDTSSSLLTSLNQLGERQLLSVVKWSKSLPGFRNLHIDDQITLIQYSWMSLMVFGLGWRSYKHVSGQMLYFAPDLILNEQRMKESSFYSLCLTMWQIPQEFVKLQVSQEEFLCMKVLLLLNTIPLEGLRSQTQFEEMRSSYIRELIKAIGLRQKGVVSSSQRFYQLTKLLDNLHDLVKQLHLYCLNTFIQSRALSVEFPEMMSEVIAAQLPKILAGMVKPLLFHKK
Description: Binding to the progesterone receptor, recombinantly produced receptor. An excerpt: (§1) The binding of the substances to the glucocorticoid receptor (GR) and other steroid-hormone receptors (mineral corticoid receptor (MR), progesterone receptor (PR) and androgen receptor (AR)) is examined with the aid of recombinantly produced receptors. Cytosol preparations of Sf9 cells, which had been infected with recombinant baculoviruses that code for the GR, are used for the binding studies. In comparison to the reference substance [^3H]-dexamethasone, the substances show a high affinity to the GR.

Series [3] deals with T2, glucocorticoid receptor (GR) (Homo sapiens, UniProt P04150).
T2 construct: made in house; host or cells: Sf9 cells infected with recombinant baculovirus (cytosol preparation)
T2 sequence (P04150 1-777): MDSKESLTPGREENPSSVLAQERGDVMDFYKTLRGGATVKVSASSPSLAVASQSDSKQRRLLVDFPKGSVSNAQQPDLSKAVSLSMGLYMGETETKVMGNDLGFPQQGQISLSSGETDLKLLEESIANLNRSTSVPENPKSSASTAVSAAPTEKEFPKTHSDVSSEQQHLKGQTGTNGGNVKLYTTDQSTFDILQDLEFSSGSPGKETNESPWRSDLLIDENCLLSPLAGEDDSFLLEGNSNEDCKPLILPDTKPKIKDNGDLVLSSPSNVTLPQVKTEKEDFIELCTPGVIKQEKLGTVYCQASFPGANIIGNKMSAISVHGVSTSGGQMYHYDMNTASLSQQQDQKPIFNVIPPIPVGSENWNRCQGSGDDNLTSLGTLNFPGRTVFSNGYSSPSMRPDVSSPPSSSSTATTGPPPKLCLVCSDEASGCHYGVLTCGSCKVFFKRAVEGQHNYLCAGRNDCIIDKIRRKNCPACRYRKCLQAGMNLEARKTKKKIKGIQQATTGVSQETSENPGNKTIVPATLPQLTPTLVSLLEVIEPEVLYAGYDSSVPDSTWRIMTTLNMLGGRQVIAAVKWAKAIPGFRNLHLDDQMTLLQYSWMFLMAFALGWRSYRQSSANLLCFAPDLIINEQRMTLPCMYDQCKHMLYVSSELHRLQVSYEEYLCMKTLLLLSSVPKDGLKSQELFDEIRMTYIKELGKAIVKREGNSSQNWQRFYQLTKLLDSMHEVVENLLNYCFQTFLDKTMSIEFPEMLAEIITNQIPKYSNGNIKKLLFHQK
As to the kind of experiment: Binding to the glucocorticoid receptor, recombinantly produced receptor, cytosol preparations of Sf9 cells. The settings on record: reference substance [3H]-dexamethasone.
Source text: as §1

Take `Cc1ccc2c(NC3c4cc(O)ccc4C(C)(C)CC3(O)C(F)(F)F)cccc2n1` (centres unmarked) [Example 140, 4,4-Dimethyl-1-(2-methylquinolin-5-ylamino)-2-(trifluoromethyl)-1,2,3,4-tetrahydronaphthalene-2,7-diol]: the melting point is 127 °C.

`COc1ccc2c(c1)C(Nc1cccc3c(=O)[nH]ncc13)C(O)(C(F)(F)F)CC2(C)C` (centres unmarked) [Example 138, 5-(2-Hydroxy-7-methoxy-4,4-dimethyl-2-(trifluoromethyl)-1,2,3,4-tetrahydronaphthalen-1-ylamino)-2H-phthalazin-1-one] came in with a melting point of 197 °C.

On to `COc1ccc2c(c1)C(Nc1cccc3c(=O)[nH]ccc13)C(O)(C(F)(F)F)CC2(C)C` (centres unmarked) [Example 137, 5-(2-Hydroxy-7-methoxy-4,4-dimethyl-2-(trifluoromethyl)-1,2,3,4-tetrahydronaphthalen-1-ylamino)-2H-isoquinolin-1-one], for which the melting point was found to be 112 °C.

`COc1cccc2c1CCC(O)(C(F)(F)F)C2Nc1ccc(F)c2nc(C)ncc12` (centres unmarked) [Example 145, 1-(8-Fluoro-2-methylquinazolin-5-ylamino)-5-methoxy-2-(trifluoromethyl)-1,2,3,4-tetrahydro-naphthalen-2-ol] yielded a melting point of 132 °C.

Consider `CC1(C)CC(O)(C(F)(F)F)C(Nc2cccc3[nH]ncc23)c2cc(F)cc(O)c21` (centres unmarked) [Example 49, 7-Fluoro-1-[(1H-indazol-4-yl)amino]-4,4-dimethyl-2-(trifluoromethyl)-1,2,3,4-tetrahydronaphthalene-2,5-diol], for which the IC50 in series [1] was found to be 19 nM; in series [2], 460 nM; in series [3] it was 95 nM.

The molecule `COc1ccc2c(c1)C(Nc1cccc3[nH]c(=O)ccc13)C(O)(C(F)(F)F)CC2(C)C` (centres unmarked) [Example 136, 5-(2-Hydroxy-7-methoxy-4,4-dimethyl-2-(trifluoromethyl)-1,2,3,4-tetrahydronaphthalen-1-ylamino)-1H-quinolin-2-one] came in with a melting point of 128 °C.

`CC1(C)CC(O)(C(F)(F)F)C(Nc2cccc3[nH]c(=O)ccc23)c2cc(O)c(Cl)cc21` (centres unmarked) [Example 134, 5-(6-Chloro-2,7-dihydroxy-4,4-dimethyl-2-(trifluoromethyl)-1,2,3,4-tetrahydronaphthalen-1-ylamino)-1H-quinolin-2-one] showed a melting point of 158 °C.

`CC1(C)CC(O)(C(F)(F)F)C(Nc2cccc3[nH]ncc23)c2c(F)ccc(F)c21` (racemic) [Example 105, Rac.-5,8-Difluoro-1-[(1H-indazol-4-yl)amino]-4,4-dimethyl-2-(trifluoromethyl)-1,2,3,4-tetrahydronaphthalen-2-ol] returned a melting point of 209 to 221 °C.

For the molecule `COc1ccc2c(c1)C(Nc1cccc3nc(C)ccc13)C(O)(C(F)(F)F)CC2(C)C` (centres unmarked) [Example 139, 7-Methoxy-4,4-dimethyl-1-(2-methylquinolin-5-ylamino)-2-(trifluoromethyl)-1,2,3,4-tetrahydronaphthalen-2-ol], the melting point was 85 °C.

`COc1cccc2c1CCC(O)(C(F)(F)F)C2Nc1cccc2[nH]c(=O)ccc12` (centres unmarked) [Example 144, 5-(2-Hydroxy-5-methoxy-2-(trifluoromethyl)-1,2,3,4-tetrahydronaphthalen-1-ylamino)-1H-quinolin-2-one] yielded a melting point of 228 °C.

Molecule `CC1(C)CC(O)(C(F)(F)F)C(Nc2cccc3c(=O)[nH]ncc23)c2cc(O)ccc21` (centres unmarked) [Example 141, 5-(2,7-Dihydroxy-4,4-dimethyl-2-(trifluoromethyl)-1,2,3,4-tetrahydronaphthalen-1-ylamino)-2H-phthalazin-1-one] had a melting point of 116 °C.

`COc1ccc2c(c1)C(Nc1ccc(F)c3nc(C)ncc13)C(O)(C(F)(F)F)CC2(C)C` (centres unmarked) [Example 135, 1-(8-Fluoro-2-methylquinazolin-5-ylamino)-7-methoxy-4,4-dimethyl-2-(trifluoromethyl)-1,2,3,4-tetrahydronaphthalen-2-ol]: the melting point came to 97 °C.
